The values below come from paper PMC11855827, “High-Throughput Screening of Five Compound Libraries for Anthelmintic Activity and Toxicity Leads to the Discovery of Two Flavonoid Compounds” (International Journal of Molecular Sciences, 2025).

The test deals with C. elegans. The test can be described thus: microbe, parasite or virus in culture. The following applies: Caenorhabditis elegans.
[1] abbreviates: 0 h, read-out: Percentage of motility inhibition 0 h, Table S2, C. elegans SS assay, 110 μM, 0 h, averages of 4 data points.
Where [2] appears, read: 24 h, read-out: Percentage of motility inhibition 24 h, Table S2, C. elegans SS assay, 110 μM, 24 h, averages of 4 data points.
Setting [3] is: 0 h, read-out: Percentage of motility inhibition 0 h.
Setting [4] is: 24 h, read-out: Percentage of motility inhibition 24 h.

A word on the inhibition: it is the drop in the measured response relative to a control, in per cent.

Where two headings read alike, the source gives them in different places.

For the compound `C/C(=C\C(=O)CC(C)C(=O)O)[C@H]1C[C@H](O)[C@@]2(C)C3=C(C(=O)C[C@]12C)[C@@]1(C)CCC(=O)C(C)(C)[C@@H]1C[C@@H]3O` (stereo partly drawn) [Ganoderenic acid A], the inhibition at 110 µM reads like this: under setting [1], 0%; under setting [2], 0%.

Take `CN(C)[C@@H]1C(O)=C(C(N)=O)C(=O)[C@@]2(O)C(O)=C3C(=O)c4c(O)cccc4[C@@](C)(O)[C@H]3C[C@@H]12` [Tetracycline]: the inhibition at 110 µM amounted to 39% under setting [1] and 46% under setting [2].

On to `c1ccc2c(Cc3c[nH]c4ccccc34)c[nH]c2c1` [3,3'‐Diindolylmethane], for which the inhibition at 110 µM by setting is: under setting [1], 0%; under setting [2], 7%.

For the compound `COc1ccc(-c2cc(=O)c3c(OC)c(OC)c(OC)cc3o2)cc1OC` [Sinensetin], the inhibition at 110 µM under setting [1] amounted to 0% and the inhibition at 110 µM under setting [2] worked out at 0%.

Turning to `COC(=O)[C@]12CCCC(C)(C)[C@@H]1CCc1cc(C(C)C)c(O)c(O)c12` [Methyl carnosate], the inhibition at 110 µM came to 0% under setting [1] and 63% under setting [2].

Take `Nc1nc2c(nc(O)n2[C@@H]2O[C@H](CO)[C@@H](O)[C@H]2O)c(=O)[nH]1` [8‐Hydroxyguanosine]: the inhibition at 110 µM turned out to be 14% under setting [1] and 4% under setting [2].

Take `Nc1ncnc2[nH]cnc12` [Adenine]: the inhibition at 110 µM by setting is: under setting [3], 0%; under setting [4], 3%.

`O[C@H]1[C@H](O)[C@@H](O)CN2CC[C@H](O)[C@H]12` [Castanospermine]: the inhibition at 110 µM under setting [1] is 0% and the inhibition at 110 µM under setting [2] is 0%.

For `C[C@H](CC[C@@H](O)C(C)(C)O)[C@H]1CC[C@@]2(C)[C@@H]3CC=C4[C@@H](CC[C@H](O)C4(C)C)[C@]3(C)[C@H](O)C[C@]12C` [Mogrol], the inhibition at 110 µM runs as follows: under setting [1], 5%; under setting [2], 2%.

For the compound `C=C[C@@]12CN(C)[C@H]3C[C@]14C(=Nc1ccccc14)[C@H]1C[C@@H]2[C@@H]3CO1` [Koumine], the inhibition at 110 µM under setting [1] stood at 16% and the inhibition at 110 µM under setting [2] turned out to be 18%.

With `CC1=C(C/C=C(\C)CCC[C@H](C)CCC[C@H](C)CCCC(C)C)C(=O)c2ccccc2C1=O` [Vitamin K1], the inhibition at 110 µM was found to be 6% under setting [1] and 13% under setting [2].

As to `O=c1c(O)c(-c2ccc(O)c(O)c2)oc2cc(O)cc(O)c12` [Quercetin], the inhibition at 110 µM stood at 24% under setting [1] and 11% under setting [2].

`COc1c(O[C@@H]2O[C@H](CO)[C@@H](O)[C@H](O)[C@H]2O)cc2occ(-c3ccc(O)cc3)c(=O)c2c1O` [Tectoridin]: the inhibition at 110 µM by setting is: under setting [1], 1%; under setting [2], 11%.

For the compound `COc1c(O)cc2oc(-c3ccc(O)cc3)cc(=O)c2c1O` [Hispidulin], the inhibition at 110 µM was determined as 0% under setting [3] and 33% under setting [4].

As to `Oc1ccc(Cl)c2cccnc12` [Cloxiquine], the inhibition at 110 µM by setting is: under setting [1], 40%; under setting [2], 19%.

For the compound `CCS(=O)(=O)CCn1c([N+](=O)[O-])cnc1C` [Tinidazole], the inhibition at 110 µM under setting [1] came to 25% and the inhibition at 110 µM under setting [2] stood at 8%.

Turning to `COC(=O)N[C@H](C(=O)N1CCC[C@H]1c1nc(-c2ccc(-c3ccc(-c4c[nH]c([C@@H]5CCCN5C(=O)[C@@H](NC(=O)OC)C(C)C)n4)cc3)cc2)c[nH]1)C(C)C` [Daclatasvir], the inhibition at 110 µM under setting [1] was 44% and the inhibition at 110 µM under setting [2] was found to be 43%.

In the case of `N[C@@H](CC(=O)O)C(=O)O` [L-Aspartic acid], the inhibition at 110 µM reads like this: under setting [1], 20%; under setting [2], 30%.

In the case of `C=CC(=C)CCC=C(C)C` [Myrcene], the inhibition at 110 µM is, setting by setting: under setting [1], 8%; under setting [2], 23%.

As to `COc1ccc(-c2cc(=O)c3c(O)cc(O)cc3o2)cc1` [Acacetin], the inhibition at 110 µM runs as follows: under setting [1], 9%; under setting [2], 2%.

Turning to `NC[C@H]1O[C@H](O[C@H]2[C@H](O)[C@@H](O[C@H]3O[C@H](CO)[C@@H](O)[C@H](N)[C@H]3O)[C@H](N)C[C@@H]2N)[C@H](N)[C@@H](O)[C@@H]1O` [Bekanamycin], the inhibition at 110 µM was 23% under setting [1] and 10% under setting [2].

`C[C@@H]1O[C@@H](O[C@H]2[C@H](O[C@H]3CC[C@]4(C)[C@H]5CC=C6[C@@H]7CC(C)(C)CC[C@]7(C(=O)O[C@@H]7O[C@H](CO[C@@H]8O[C@H](CO)[C@@H](O[C@@H]9O[C@@H](C)[C@H](O)[C@@H](O)[C@H]9O)[C@H](O)[C@H]8O)[C@@H](O)[C@H](O)[C@H]7O)CC[C@@]6(C)[C@]5(C)CC[C@H]4C3(C)C)OC[C@H](O)[C@@H]2O)[C@H](O)[C@H](O)[C@H]1O` [Hederasaponin B]: the inhibition at 110 µM under setting [1] is 11% and the inhibition at 110 µM under setting [2] stood at 3%.

In the case of `Clc1ccc(C(Cn2ccnc2)OCc2ccsc2Cl)c(Cl)c1` (stereo not drawn) [Tioconazole], the inhibition at 110 µM is, setting by setting: under setting [1], 30%; under setting [2], 43%.

For the compound `CCN1C[C@]2(COC)CC[C@H](O)[C@]34C1[C@@](O)([C@@H](OC)[C@H]23)[C@@]1(O)C[C@H](OC)[C@H]2C[C@@H]4[C@@H]1[C@H]2OC` [Delsoline], the inhibition at 110 µM is, setting by setting: under setting [1], 5%; under setting [2], 0%.

For the compound `Cc1cc2c(C(C)C)c(O)c(O)c(C=O)c2c(O)c1-c1c(C)cc2c(C(C)C)c(O)c(O)c(C=O)c2c1O` [Gossypol], the inhibition at 110 µM was 0% under setting [1] and 26% under setting [2].

Turning to `Cc1coc2c1C(=O)C(=O)c1c-2ccc2c(C)cccc12` [Tanshinone I], the inhibition at 110 µM under setting [1] turned out to be 0% and the inhibition at 110 µM under setting [2] was found to be 3%.

For the compound `CCC(=O)O[C@@H]1CC(=O)O[C@H](C)C/C=C/C=C/[C@H](O)[C@H](C)C[C@H](CC=O)[C@H](O[C@@H]2O[C@H](C)[C@@H](O[C@H]3C[C@@](C)(O)[C@@H](OC(=O)CC)[C@H](C)O3)[C@H](N(C)C)[C@H]2O)[C@H]1OC` [Midecamycin], the inhibition at 110 µM runs as follows: under setting [1], 16%; under setting [2], 14%.

Regarding `CC(C)(C)C(=O)C(Oc1ccc(Cl)cc1)n1ccnc1` (stereo not drawn) [Climbazole], the inhibition at 110 µM by setting is: under setting [1], 53%; under setting [2], 2%.

For the compound `CC(=O)C1C(=O)C=C(C)OC1=O` (stereo not drawn) [Dehydroacetic acid], the inhibition at 110 µM reads like this: under setting [1], 45%; under setting [2], 17%.

Turning to `C=C1[C@@H]2CC[C@@H]3[C@](C2)(C(=O)[C@@H](O)[C@@H]2C(C)(C)[C@H]4CC(=O)[C@@]32CO4)[C@@H]1OC(C)=O` [Maoecrystal A], the inhibition at 110 µM is, setting by setting: under setting [1], 7%; under setting [2], 2%.

Regarding `CCCCCCCCCC(=O)N[C@@H](Cc1c[nH]c2ccccc12)C(=O)N[C@H](CC(N)=O)C(=O)N[C@@H](CC(=O)O)C(=O)N[C@@H]1C(=O)NCC(=O)N[C@@H](CCCN)C(=O)N[C@@H](CC(=O)O)C(=O)N[C@H](C)C(=O)N[C@@H](CC(=O)O)C(=O)NCC(=O)N[C@H](CO)C(=O)N[C@@H]([C@H](C)CC(=O)O)C(=O)N[C@@H](CC(=O)c2ccccc2N)C(=O)O[C@@H]1C` [Daptomycin], the inhibition at 110 µM came out at 3% under setting [1] and 8% under setting [2].

Consider `COc1cc(O)c2c(=O)c(O[C@@H]3O[C@H](CO)[C@@H](O)[C@H](O)[C@H]3O)c(-c3ccc(O[C@@H]4O[C@H](CO)[C@@H](O)[C@H](O)[C@H]4O)cc3)oc2c1` [Complanatuside], for which the inhibition at 110 µM is 0% under setting [1] and 22% under setting [2].

Consider `COc1cc(NCc2ccc3nc(N)nc(N)c3c2C)cc(OC)c1OC` [Trimetrexate], for which the inhibition at 110 µM reads like this: under setting [1], 15%; under setting [2], 0%.

For `C=C(C)[C@@H]1CC[C@]2(C(=O)O)CC[C@]3(C)[C@H](CC[C@@H]4[C@@]5(C)CC[C@@H](O)C(C)(C)[C@@H]5CC[C@]43C)[C@@H]12` [Epibetulinic acid], the inhibition at 110 µM worked out at 14% under setting [1] and 17% under setting [2].

`CC(C)=CCC[C@](C)(O)[C@H]1CC[C@]2(C)[C@@H]1[C@H](O)C[C@@H]1[C@@]3(C)CC[C@H](O)C(C)(C)[C@@H]3[C@@H](O[C@@H]3O[C@H](CO)[C@@H](O)[C@H](O)[C@H]3O[C@@H]3O[C@H](CO)[C@@H](O)[C@H](O)[C@H]3O)C[C@]12C` [Ginsenoside Rf]: the inhibition at 110 µM runs as follows: under setting [1], 0%; under setting [2], 0%.

`C/C=C(/C)C(=O)O[C@H]1[C@H](O)[C@]2(COC(C)=O)[C@H](O)C[C@]3(C)C(=CC[C@@H]4[C@@]5(C)CC[C@H](O[C@@H]6O[C@H](C(=O)O)[C@@H](O[C@@H]7O[C@H](CO)[C@@H](O)[C@H](O)[C@H]7O)[C@H](O)[C@H]6O[C@@H]6O[C@H](CO)[C@@H](O)[C@H](O)[C@H]6O)[C@](C)(CO)[C@@H]5CC[C@]43C)[C@@H]2CC1(C)C` [Isoescin IB]: the inhibition at 110 µM by setting is: under setting [1], 9%; under setting [2], 0%.

Consider `COc1cc([C@@H]2[C@H]3CO[C@@]4(O)C(=O)[C@@H]2C=C([C@H]2Oc5cc(O)cc(O)c5C(=O)[C@@H]2O)[C@@H]34)ccc1O` [Silydianin], for which the inhibition at 110 µM under setting [1] is 17% and the inhibition at 110 µM under setting [2] amounted to 4%.

Take `O=C1c2cccc(O)c2C(=O)c2c(O)cccc21` [Danthron]: the inhibition at 110 µM by setting is: under setting [1], 21%; under setting [2], 9%.

As to `C[C@@H]1CN(c2c(F)c(N)c3c(=O)c(C(=O)O)cn(C4CC4)c3c2F)C[C@H](C)N1` [Sparfloxacin], the inhibition at 110 µM by setting is: under setting [1], 37%; under setting [2], 11%.

Regarding `COc1ccc(-c2cc(=O)c3c(O)c(OC)c(OC)cc3o2)cc1` [Salvigenin], the inhibition at 110 µM runs as follows: under setting [1], 22%; under setting [2], 3%.

For `CC(C)/N=c1\cc2n(-c3ccc(Cl)cc3)c3ccccc3nc-2cc1Nc1ccc(Cl)cc1` [Clofazimine], the inhibition at 110 µM under setting [1] amounted to 6% and the inhibition at 110 µM under setting [2] amounted to 7%.

On to `CNC(=O)c1cccnc1` [N‐Methylnicotinamide], for which the inhibition at 110 µM is, setting by setting: under setting [1], 3%; under setting [2], 0%.
